From patent US20260069722A1, “COMPOSITION FOR FLUORESCENT LABELING, FLUORESCENT PROBE, INJECTION AGENT, SYRINGE FILLING, MEDICAL APPARATUS, MEDICAL FIBER MATERIAL, METHOD FOR PRODUCING COMPOSITION FOR FLUORESCENT LABELING, AND METHOD FOR PRODUCING MEDICAL FIBER MATERIAL” (VITA CORPORATION, priority 2022, published 2026)

Assay: mixing and kneading of ICG pigment with resin, compression molding
Type: physicochemical
Conditions: pigment (ICG in glycerol) 1 to 7 phr kneaded with PP, PVC, LDPE, EVA, TPU at 140 to 170 degrees Celsius
Procedure: Pigment (ICG plus solvent) was mixed and kneaded with various types of resin, and then it was verified whether or not a sheet could be manufactured by compression molding.
As the various types of resin, five types were prepared, which include polypropylene (PP), polyvinyl chloride (PVC), low-density polyethylene (LDPE), ethylene-vinyl acetate copolymer resin (EVA), and thermoplastic polyurethane (TPU). As the pigment, viscous liquid was used in which […] 25 mg of ICG were mixed and dissolved with 10 ml of glycerol.
In addition, four patterns, i.e., 1 phr, 3 phr, 5 phr, and 7 phr of the above pigment were prepared. Note that phr is abbreviation of per hundred resin, which is a unit expressing a ratio of pigment mixed in resin whose weight is 100. For instance, if A g of pigment is in 100 g of resin, the pigment ratio can be said to be A (phr).
The resin was charged into a mixer that had been preheated, and was kneaded until it was plasticized. As the above mixer, Laboplast mill 4 M150 manufactured by Toyo Seiki Seisaku-sho, Ltd. was used. Note that “Laboplast mill” is a registered trademark of Toyo Seiki Seisaku-sho, Ltd. This step was performed for each resin prepared in advance. Mixing and kneading was performed for five minutes at temperature set for each resin. […]

Structure (SMILES): CC1(C)C(/C=C/C=C/C=C/C=C2\N(CCCCS(=O)(=O)[O-])c3ccc4ccccc4c3C2(C)C)=[N+](CCCCS(=O)(=O)[O-])c2ccc3ccccc3c21.[Na+] [ICG, indocyanine green]
- thermal degradation due to mixing and kneading: thermal degradation of ICG due to mixing and kneading can be suppressed
